These results are taken from PMC12387182, “Polyphenolic Profiling and Evaluation of Antioxidant, Antidiabetic, Anti-Alzheimer, and Antiglaucoma Activities of Allium kharputense and Anchusa azurea var. azurea” (Life, 2025).

One assay in a line: Fe^3+ reducing. The following applies: absorbance at 30 µg/mL.
A further assay can be described thus: DPPH scavenging activity. Here is the method: DPPH solution was prepared one day before the experimental measurement. The solution bottle was kept in the dark and stirred at 4 °C for 16 h. Aluminum foil was used to cover the bottle. Shortly after the preparation of 0.1 mM DPPH solution in ethanol, 0.5 mL of this solution was added to 2 mL A. kharputense and A. azurea extracts in ethanol at various concentrations (10–30 µg/mL). A. kharputense and A. azurea samples were vortexed and incubated at 30 °C for 30 min in the dark. The DPPH^• absorbances were measured and evaluated at 517 nm in comparison with the blank sample [40].
In general terms: DPPH is a stable violet radical that fades when it is reduced.

Assay [1] can be described thus: Fe^3+-TPTZ reducing (FRAP). The note with it: absorbance at 30 µg/mL. The procedure: The ferric reducing capacity (FRAP) of plasma is measured using the technique outlined. At low pH, a strong blue hue with a maximum absorption at 593 nm is produced when a ferric–tripyridyltriazine (Fe^3+-TPTZ) complex is reduced to the Fe^2+ form.
The next assay can be described thus: ABTS scavenging activity. Here is the method: In addition, the ABTS^•^+ scavenging capacity of A. kharputense and A. azurea was determined. The mixture comprised 2 mM ABTS in water combined with 2.45 mM potassium persulfate (K2S2O8) to form ABTS^•+. This mixture was then kept for six hours at room temperature and in the dark. The study was performed by first diluting the solution in phosphate buffer (pH 7.4) to achieve an absorption of 0.800 ± 0.05 at 734 nm in a 1 mL cuvette. The solution was then equilibrated at 30 °C, the temperature at which all subsequent tests were conducted. Subsequently, 3 mL of each of A. kharputense and A. azurea in ethanol at various concentrations (10–30 µg/mL) were combined with 1 mL each of ABTS^•+ solution. Following a 30 min period of agitation, the absorbances were measured at 734 nm, and the radical scavenging activities were calculated for each concentration.

A short description of assay [2]: Cu^2+ reducing ability (CUPRAC). The note with it: absorbance at 30 µg/mL. The procedure: Equal volumes of 1.0 mM CuCl2, 7.5 mM neocuprine solutions, and 1.0 M ammonium acetate buffer (pH 6.5) were prepared according to the technique of Apak et al.. The plants were mixed with three different concentrations of the samples (15–45 µg/mL in ethanol), and the total reaction volume was adjusted to 2 mL. After the tubes were kept at room temperature for 30 min, the absorbance values at 450 nm were read spectrophotometrically.

For assay [3] the following is noted: cited from earlier work.
A further assay concerns the target α-glycosidase (Saccharomyces cerevisiae, UniProt P53341). The note with it: cited from earlier work.

The structures appear in SMILES notation.

α-glycosidase, sequence (P53341 whole entry): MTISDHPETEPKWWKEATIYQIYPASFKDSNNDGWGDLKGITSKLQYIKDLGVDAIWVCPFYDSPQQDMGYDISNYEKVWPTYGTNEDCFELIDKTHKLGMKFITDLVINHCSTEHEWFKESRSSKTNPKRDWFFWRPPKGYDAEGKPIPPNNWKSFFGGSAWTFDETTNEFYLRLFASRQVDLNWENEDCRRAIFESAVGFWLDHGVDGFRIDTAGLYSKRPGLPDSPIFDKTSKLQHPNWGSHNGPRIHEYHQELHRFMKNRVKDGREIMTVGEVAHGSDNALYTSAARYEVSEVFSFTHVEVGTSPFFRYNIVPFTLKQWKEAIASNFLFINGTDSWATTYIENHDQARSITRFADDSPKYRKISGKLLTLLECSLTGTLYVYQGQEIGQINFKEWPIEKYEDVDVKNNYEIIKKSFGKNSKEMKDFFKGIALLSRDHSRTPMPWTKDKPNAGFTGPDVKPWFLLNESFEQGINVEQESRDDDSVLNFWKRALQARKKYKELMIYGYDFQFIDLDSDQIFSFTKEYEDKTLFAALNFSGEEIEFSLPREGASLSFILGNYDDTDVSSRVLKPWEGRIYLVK

Regarding `Cc1cc(C(C)(C)C)c(O)c(C(C)(C)C)c1` [BHT, butylated hydroxytoluene], the “Fe^3+ Reducing A (700 nm)” value in the assay “Fe^3+ reducing” worked out at 2.08 ± 0.062. Moreover, the “DPPH^• Scavenging IC50” value in the assay “DPPH scavenging activity” came to 13.34 ± 0.011 µg/mL. The “Fe^3+-TPTZ Reducing A (593 nm)” value in assay [1] stood at 1.50 ± 0.080. The “ABTS^•+ Scavenging IC50” value in “ABTS scavenging activity” is 32.00 ± 0.100 µg/mL. Besides, the “Cu^2+ Reducing A (450 nm)” value in assay [2] is on record as 2.15 ± 0.068.

Turning to `O=C1O[C@H]([C@@H](O)CO)C(O)=C1O` [Ascorbic acid], in the assay “DPPH scavenging activity”, the “DPPH^• Scavenging IC50” value was 18.61 ± 0.120 µg/mL. In addition, the “ABTS^•+ Scavenging IC50” value in the assay “ABTS scavenging activity” stood at 28.79 ± 0.120 µg/mL. Moreover, the “DPPH radical scavenging activity (IC50)” value in assay [3] was 3.6 µg/mL.

Consider `Cc1c(C)c2c(c(C)c1O)CCC(C)(C(=O)O)O2` (centres unmarked) [Trolox], for which the “Fe^3+ Reducing A (700 nm)” value in the assay “Fe^3+ reducing” was 1.45 ± 0.005. The “DPPH^• Scavenging IC50” value in “DPPH scavenging activity” came to 20.98 ± 0.016 µg/mL. The “Fe^3+-TPTZ Reducing A (593 nm)” value in assay [1] came out at 0.84 ± 0.010. In the assay “ABTS scavenging activity”, the “ABTS^•+ Scavenging IC50” value is recorded as 53.26 ± 0.070 µg/mL. In assay [2], the “Cu^2+ Reducing A (450 nm)” value was 1.04 ± 0.102.

For the molecule `Cc1c(C)c2c(c(C)c1O)CC[C@@](C)(CCC[C@H](C)CCC[C@H](C)CCCC(C)C)O2` [α-Tocopherol, α-tocopherol], the “Fe^3+ Reducing A (700 nm)” value in the assay “Fe^3+ reducing” is on record as 0.94 ± 0.059. In addition, the “DPPH^• Scavenging IC50” value in the assay “DPPH scavenging activity” was found to be 30.29 ± 0.056 µg/mL. The “ABTS^•+ Scavenging IC50” value in “ABTS scavenging activity” turned out to be 25.12 ± 0.070 µg/mL. The “Cu^2+ Reducing A (450 nm)” value in assay [2] was 1.47 ± 0.044.

For the molecule `O=c1c(O[C@@H]2O[C@H](CO)[C@@H](O)[C@H](O)[C@H]2O)c(-c2ccc(O)c(O)c2)oc2cc(O)cc(O)c12` [isoquercitrin], the “α-glycosidase inhibitory effect compared with Acarbose” value at α-glycosidase is “stronger than that of Acarbose”.

In the case of `COc1ccc(O)c(C(C)(C)C)c1` [BHA, butylated hydroxyanisole], in “Fe^3+ reducing”, the “Fe^3+ Reducing A (700 nm)” value worked out at 1.76 ± 0.026. Further, the “DPPH^• Scavenging IC50” value in “DPPH scavenging activity” is listed as 23.87 ± 0.097 µg/mL. Moreover, in assay [1], the “Fe^3+-TPTZ Reducing A (593 nm)” value stood at 1.75 ± 0.040. Also, the “ABTS^•+ Scavenging IC50” value in the assay “ABTS scavenging activity” stood at 38.59 ± 0.130 µg/mL. Also, the “Cu^2+ Reducing A (450 nm)” value in assay [2] is listed as 1.58 ± 0.016.
